One experiment addresses T1, human FXa (Homo sapiens, UniProt P00742).
T1 construct: purchased Enzyme Research Laboratories, Inc
Briefly: Measurement of the human FXa inhibitory action (synthetic substrate S-2222). It counts as biochemical. Particulars: human FXa 0.019 U/ml, S-2222 0.4 mM, 37° C., pH 7.5. The procedure: In vitro FXa inhibitory activity may be measured according to the method of Kettner et al. (Journal of Biological Chemistry, vol. 265, pages 18289 to 18297, 1990). To be more specific, human FXa (product of Enzyme Research Laboratories, Inc., 0.019 U/ml) is mixed with the specimens (of the compound of the present invention) prepared by diluting the compound of the invention with dimethylsulfoxide (DMSO) to different concentrations and synthetic substrate S-2222 (Chromogenix AB, 0.4 mM), and the mixtures are incubated at 37° C. in Tris-hydrochloric acid buffer (pH 7.5). The FXa inhibitory activity of the specimen is calculated by measuring the absorbance at 405 nm.
It should be noted that the FXa inhibitory activity of the specimen is generally indicated as IC50.

The next experiment relates to human plasma. Briefly: Anticoagulant activity in vitro: intrinsic coagulation time (APTT). It counts as biochemical. Particulars: APTT reagent, calcium chloride 25 mM. The procedure:
Activated partial thromboplastin time (APTT) is measured in the presence of the test compounds of the present invention diluted at various concentrations. To be more specific, each of the test compounds diluted with DMSO at various concentrations is mixed with human plasma and APTT reagent. The mixture is incubated at 37° C. for 2 minutes; calcium chloride (25 mM) is added to the mixture; and the coagulation time is thereafter measured. It should be noted that the anticoagulant activity of the test compound is described in terms of the concentration required to double the coagulation time for the case where no test compound is added.

The values below come from patent US20090170844A1, “Spiro Tetracyclic Compound” (priority 2006, published 2009).

The structures appear in SMILES notation.

One may read the IC50 as the concentration that inhibits the measured activity by half. Low readings indicate higher potency, high ones lower potency.

T1 sequence (P00742 235-488 limits assumed): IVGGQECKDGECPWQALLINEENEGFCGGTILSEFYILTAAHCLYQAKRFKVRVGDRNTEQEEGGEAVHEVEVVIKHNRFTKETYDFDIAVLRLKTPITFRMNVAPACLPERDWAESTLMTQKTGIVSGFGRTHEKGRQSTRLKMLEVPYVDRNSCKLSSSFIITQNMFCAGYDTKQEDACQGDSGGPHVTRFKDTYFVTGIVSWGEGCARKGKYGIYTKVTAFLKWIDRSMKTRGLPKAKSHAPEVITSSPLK
T1 sequence (P00742 41-179 partner limits assumed): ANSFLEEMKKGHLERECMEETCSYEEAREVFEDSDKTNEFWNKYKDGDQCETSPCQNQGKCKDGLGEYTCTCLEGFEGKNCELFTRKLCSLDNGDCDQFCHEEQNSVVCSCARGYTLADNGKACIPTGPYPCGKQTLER

Take `CN1CC23CN(S(=O)(=O)c4cc5ccc(Cl)cc5s4)CC(=O)N2CC2(CCN(C4=NCCO4)CC2)N3C1=O` (single isomer, unassigned; (-)) [Example 11, (−)-3′,5′,8′,11′-tetraaza-11′-(6-chlorobenzo[b]thiophen-2-ylsulfonyl)-3′-methyl-1-(2-oxazolinyl)spiro[piperidine-4,6′-tricyclo[6.4.0.0^1,5]dodecane]-4′,9′-dione]: half-maximal inhibition against human FXa (IC50) required 4.7 nM.
In the case of `CN1CC23CN(S(=O)(=O)c4cc5ccc(Cl)cc5s4)CC(=O)N2CC2(CCN(C4=NCCCO4)CC2)N3C1=O` (single isomer, unassigned; (-)) [Example 12, (−)-3′,5′,8′,11′-tetraaza-11′-(6-chlorobenzo[b]thiophen-2-ylsulfonyl)-1-(5,6-dihydro-4H-1,3-oxazin-2-yl)-3′-methylspiro[piperidine-4,6′-tricyclo[6.4.0.0^1,5]dodecane]-4′,9′-dione], in the experiment with human plasma, the “Concentration when APTT was doubled” value came out at 0.34 µM.
`CN1CC23CN(S(=O)(=O)c4cc5cc(Cl)ccc5[nH]4)CC(=O)N2CC2(CCN(C4=NCCO4)CC2)N3C1=O` (single isomer, unassigned; (-)) [Example 17, (−)-3′,5′,8′,11′-tetraaza-11′-(5-chloro-1H-indol-2-ylsulfonyl)-3′-methyl-1-(2-oxazolinyl)spiro[piperidine-4,6′-tricyclo[6.4.0.0^1,5]dodecane]-4′,9′-dione] returned an IC50 on human FXa of 0.4 nM.
Regarding `CN1CC23CN(S(=O)(=O)c4cc5cc(Cl)ccc5[nH]4)CC(=O)N2CC2(CCN(C4=NCCCO4)CC2)N3C1=O` (single isomer, unassigned; (-)) [Example 18, (−)-3′,5′,8′,11′-tetraaza-11′-(5-chloro-1H-indol-2-ylsulfonyl)-1-(5,6-dihydro-4H-1,3-oxazin-2-yl)-3′-methylspiro[piperidine-4,6′-tricyclo[6.4.0.0^1,5]dodecane]-4′,9′-dione], the IC50 against human FXa was 4.3 nM. Also, in the experiment on human plasma, the “Concentration when APTT was doubled” value is 0.26 µM.
On to `CN1CC23CN(S(=O)(=O)c4cc5ccc(Cl)cc5s4)CC(=O)N2CC2(CCN(C4=NCCCC4)CC2)N3C1=O` (single isomer, unassigned; (-)) [Example 14, (−)-3′,5′,8′,11′-tetraaza-11′-(6-chlorobenzo[b]thiophen-2-ylsulfonyl)-1-(3,4,5,6-tetrahydropyridin-2-yl)-3′-methylspiro[piperidine-4,6′-tricyclo[6.4.0.0^1,5]dodecane]-4′,9′-dione], for which the IC50 against human FXa worked out at 3.6 nM. For the same compound, in the experiment on human plasma, the “Concentration when APTT was doubled” value is 0.24 µM.
Take `CCC(=O)N1CCC2(CC1)CN1C(=O)CN(S(=O)(=O)c3cc4cc(Cl)ccc4[nH]3)CC13CN(C)C(=O)N23` (single isomer, unassigned; (-)) [Example 22, (−)-3′,5′,8′,11′-tetraaza-11′-(5-chloro-1H-indol-2-ylsulfonyl)-3′-methyl-1-propionylspiro[piperidine-4,6′-tricyclo[6.4.0.0^1,5]dodecane]-4′,9′-dione]: the IC50 on human FXa amounted to 4 nM.
`CN1CC23CN(S(=O)(=O)c4ccc5cc(Cl)ccc5c4)CC(=O)N2CC2(CCN(C4=NCCO4)CC2)N3C1=O` (single isomer, unassigned; (-)) [Example 29, (−)-3′,5′,8′,11′-tetraaza-11′-(6-chloronaphthalen-2-ylsulfonyl)-3′-methyl-1-(2-oxazolinyl)spiro[piperidine-4,6′-tricyclo[6.4.0.0^1,5]dodecane]-4′,9′-dione]: half-maximal inhibition against human FXa (IC50) required 2.4 nM.
With `CN1CC23CN(S(=O)(=O)c4ccc5cc(Cl)ccc5c4)CC(=O)N2CC2(CCN(C4=NCCCC4)CC2)N3C1=O` (single isomer, unassigned; (-)) [Example 8, (−)-3′,5′,8′,11′-tetraaza-11′-(6-chloronaphthalen-2-ylsulfonyl)-1-(3,4,5,6-tetrahydropyridin-2-yl)-3′-methylspiro[piperidine-4,6′-tricyclo[6.4.0.0^1,5]dodecane]-4′,9′-dione], the “Concentration when APTT was doubled” value in the experiment with human plasma was found to be 0.27 µM.
Regarding `O=C1CN(S(=O)(=O)c2ccc3cc(Cl)ccc3c2)CC23CNC(=O)N2C2(CCN(c4cccnn4)CC2)CN13` (racemic) [Example 3, (±)-3′,5′,8′,11′-tetraaza-11′-(6-chloronaphthalen-2-ylsulfonyl)-1-(3-pyridazinyl)spiro[piperidine-4,6′-tricyclo[6.4.0.0^1,5]dodecane]-4′,9′-dione], the IC50 at human FXa is 4.1 nM.
At human FXa, `CN1CC23CN(S(=O)(=O)c4cc5cc(Cl)ccc5[nH]4)CC(=O)N2CC2(CCN(C4=NCCCC4)CC2)N3C1=O` (single isomer, unassigned; (-)) [Example 20, (−)-3′,5′,8′,11′-tetraaza-11′-(5-chloro-1H-indol-2-ylsulfonyl)-1-(3,4,5,6-tetrahydropyridin-2-yl)-3′-methylspiro[piperidine-4,6′-tricyclo[6.4.0.0^1,5]dodecane]-4′,9′-dione] returned an IC50 of 3 nM. For the same compound, the “Concentration when APTT was doubled” value in the experiment with human plasma came out at 0.24 µM.
In turn, `CN1CN2C3(CCN(c4ccncc4)CC3)CN3C(=O)CN(S(=O)(=O)c4ccc5cc(Cl)ccc5c4)CC32C1` (racemic) [Example 5, (±)-3′,5′,8′,11′-tetraaza-11′-(6-chloronaphthalen-2-ylsulfonyl)-3′-methyl-1-(4-pyridyl)spiro[piperidine-4,6′-tricyclo[6.4.0.0^1,5]dodecan]-9′-one] yielded an IC50 against human FXa of 4 nM.
Still for that read-out and setting: the same measure for `O=C1CN(S(=O)(=O)c2ccc3cc(Cl)ccc3c2)CC23CNC(=O)N2C2(CCN(C4=NCCO4)CC2)CN13` (racemic) [Example 2, (±)-3′,5′,8′,11′-tetraaza-11′-(6-chloronaphthalen-2-ylsulfonyl)-1-(2-oxazolinyl)spiro[piperidine-4,6′-tricyclo[6.4.0.0^1,5]dodecane]-4′,9′-dione]: 4.8 nM.
